Measured values as given in patent US12491252B2, “Substituted 3-amino-5-phenylbenzamide compounds as covalent inhibitors of enhancer zeste homolog 2 (EZH2) and proteolysis-targeting chimeric derivatives thereof (PROTACs) that induce degradation of EZH2” (Northwestern University, priority 2021, dated 2025).

What was measured:
EZH2 [1] = molecular target: T1, EZH2 (Homo sapiens, UniProt Q15910); assay: Western blot of EZH2 protein in C4-2B cells; details: for Degrading EZH2 protein: FIG. 5, 24 or 48 hours; for Degradation of EZH2: FIG. 14, 10 μM for 6 days
H3K27me3 = assay: Western blot of H3K27me3 levels in C4-2B cells; format: cell-based; details: FIG. 14, 10 μM for 6 days
[2] = Pharmacokinetics in mice, IP cassette dosing, plasma LC/MS/MS; format: in vivo, C57Bl/6 mouse; details: mouse, C57Bl/6 mice, 4 mg/kg IP, cassette format
Protocol: FIG. 35. Pharmacokinetics of indicated compounds. Compounds were administered to C57Bl/6 mouse mice at 4 mg/kg using intraperitoneal (IP) injection in cassette format. Plasma was collected at the indicated time points and analyzed by LC/MS/MS using standard methods.
For assessing pharmacokinetics, compounds were administered to C57Bl/6 mouse mice at 4 mg/kg using intraperitoneal (IP) injection in cassette format. Plasma was collected at the indicated time points and analyzed by LC/MS/MS using standard methods.

SUZ12 = assay: Western blot of SUZ12 in C4-2B cells; format: cell-based; details: FIG. 14, 10 μM for 6 days
C4-2B cells [3] = assay: Colony assay using C4-2B cells; format: cell-based; details: FIG. 20B, treatment for 7 days
Protocol: (§1) FIG. 20A-20B. (FIG. 20A) Live imaging cell proliferation of C4-2B cells. Cells were treated with indicated compounds and monitored over 168 hours for proliferation by phase object confluence. DMSO is set as the negative control. […] (FIG. 20B) Colony assays using C4-2B cells after treatment with the indicated compounds for 7 days.

EZH2 [4] = molecular target: T1, EZH2; assay: Western blot of EZH2 protein in DU-145 cells; details: FIG. 27, 6 days treatment
Excerpt: (Upper right western blot) Western blot analysis of EZH2 protein in DU-145 cells after 6 days treatment.

LNCaP cells [5] = assay: Imaging of LnCaP cells (cell density); format: cell-based; details: FIG. 18, 12 days' treatment
Excerpt: FIG. 18. Imaging of LnCaP cells after 12 days' treatment with the indicated compounds.

EZH2 [6] = molecular target: T1, EZH2; assay: Western blot of EZH2 with esiRNA knockdown of VHL or siRNA control; format: cell-based; details: FIG. 16; siRNA control lane; duplicate
Protocol: FIG. 16. Cells were treated with indicated compounds with either esiRNA knockdown of VHL or siRNA control (no EZH2 knockdown) and blotted for EZH2 and VHL. […] Experiment was run in duplicate with both replicates shown on the left and right sides.

LNCaP cells [7] = assay: Live imaging cell proliferation of LNCaP cells; format: cell-based; details: FIG. 17A, monitored over 168 hours
Excerpt: FIG. 17A-17B. (FIG. 17A) Live imaging cell proliferation of LNCaP cells. […] DMSO is set as the negative control. […] (FIG. 17B) Colony assays using LnCaP cells after treatment with the indicated compounds for 7 days.

LNCaP cells [8] = assay: Colony assay using LnCaP cells; format: cell-based; details: FIG. 17B, treatment for 7 days
Protocol: as §1, with “FIG. 17A-17B.” for “FIG. 20A-20B.”, “(FIG. 17A)” for “(FIG. 20A)”, “of LNCaP” for “of C4-2B”, “(FIG. 17B)” for “(FIG. 20B)”, “using LnCaP” for “using C4-2B”

C4-2B cells [9] = assay: Live imaging cell proliferation of C4-2B cells; format: cell-based; details: FIG. 20A, monitored over 168 hours
Excerpt: FIG. 20A-20B. (FIG. 20A) Live imaging cell proliferation of C4-2B cells. […] DMSO is set as the negative control. […] (FIG. 20B) Colony assays using C4-2B cells after treatment with the indicated compounds for 7 days.

EZH2 [10] = molecular target: T1, EZH2; assay: Western blot of EZH2 protein in PC3 cells; details: FIG. 26, 6 days treatment
Excerpt: (Upper right western blot) Western blot analysis of EZH2 protein in PC3 cells after 6 days treatment.

C4-2B cells [11] = assay: Imaging of C4-2B cells (cell density); format: cell-based; details: FIG. 21, 12 days' treatment
Excerpt: FIG. 21. Imaging of C4-2B cells after 12 days' treatment with the indicated compounds.

[12] = FIG. 7, 24 hours, 5 μM or 10 μM MG132
[13] = FIG. 1, increasing doses 24 or 48 hours, or 0.5 μM over a time course

T1 sequence (Q15910 whole entry): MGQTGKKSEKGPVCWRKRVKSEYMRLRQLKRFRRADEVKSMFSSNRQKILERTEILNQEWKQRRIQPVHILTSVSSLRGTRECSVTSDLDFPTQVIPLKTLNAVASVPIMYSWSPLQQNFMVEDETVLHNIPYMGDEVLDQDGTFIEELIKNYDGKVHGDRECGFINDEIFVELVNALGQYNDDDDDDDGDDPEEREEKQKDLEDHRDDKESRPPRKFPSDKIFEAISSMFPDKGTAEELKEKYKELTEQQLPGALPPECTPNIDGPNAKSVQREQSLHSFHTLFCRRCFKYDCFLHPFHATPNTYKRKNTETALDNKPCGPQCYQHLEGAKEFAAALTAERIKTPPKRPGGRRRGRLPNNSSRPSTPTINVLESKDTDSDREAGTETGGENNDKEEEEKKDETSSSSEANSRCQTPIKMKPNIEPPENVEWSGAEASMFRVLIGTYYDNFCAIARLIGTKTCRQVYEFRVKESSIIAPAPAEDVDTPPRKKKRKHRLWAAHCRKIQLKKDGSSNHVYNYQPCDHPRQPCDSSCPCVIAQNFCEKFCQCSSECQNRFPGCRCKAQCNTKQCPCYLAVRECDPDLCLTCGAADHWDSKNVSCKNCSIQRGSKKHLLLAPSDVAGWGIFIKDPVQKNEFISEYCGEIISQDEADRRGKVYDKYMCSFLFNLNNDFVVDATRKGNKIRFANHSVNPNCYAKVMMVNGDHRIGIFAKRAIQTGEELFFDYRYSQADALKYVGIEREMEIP
T1 sequence (Q15022 whole entry partner): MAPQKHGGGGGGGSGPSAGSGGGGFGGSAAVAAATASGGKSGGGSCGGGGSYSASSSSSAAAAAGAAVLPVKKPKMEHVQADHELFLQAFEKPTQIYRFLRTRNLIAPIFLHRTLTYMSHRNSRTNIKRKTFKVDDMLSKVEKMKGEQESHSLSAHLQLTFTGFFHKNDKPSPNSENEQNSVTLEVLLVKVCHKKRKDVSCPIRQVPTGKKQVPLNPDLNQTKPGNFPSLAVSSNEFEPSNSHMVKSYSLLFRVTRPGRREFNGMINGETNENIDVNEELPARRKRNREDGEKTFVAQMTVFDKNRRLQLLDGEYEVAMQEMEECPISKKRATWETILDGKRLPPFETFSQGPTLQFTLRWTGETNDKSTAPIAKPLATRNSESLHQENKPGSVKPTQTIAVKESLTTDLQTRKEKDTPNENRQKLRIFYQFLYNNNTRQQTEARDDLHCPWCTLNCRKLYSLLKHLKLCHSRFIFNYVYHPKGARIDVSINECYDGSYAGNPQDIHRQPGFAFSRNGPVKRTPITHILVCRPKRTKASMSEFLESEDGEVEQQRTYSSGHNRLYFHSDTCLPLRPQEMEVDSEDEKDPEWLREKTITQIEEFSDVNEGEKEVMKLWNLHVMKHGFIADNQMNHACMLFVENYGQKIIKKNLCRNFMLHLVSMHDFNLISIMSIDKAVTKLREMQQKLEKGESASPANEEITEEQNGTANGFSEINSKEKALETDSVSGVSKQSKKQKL
T1 sequence (O75530 whole entry partner): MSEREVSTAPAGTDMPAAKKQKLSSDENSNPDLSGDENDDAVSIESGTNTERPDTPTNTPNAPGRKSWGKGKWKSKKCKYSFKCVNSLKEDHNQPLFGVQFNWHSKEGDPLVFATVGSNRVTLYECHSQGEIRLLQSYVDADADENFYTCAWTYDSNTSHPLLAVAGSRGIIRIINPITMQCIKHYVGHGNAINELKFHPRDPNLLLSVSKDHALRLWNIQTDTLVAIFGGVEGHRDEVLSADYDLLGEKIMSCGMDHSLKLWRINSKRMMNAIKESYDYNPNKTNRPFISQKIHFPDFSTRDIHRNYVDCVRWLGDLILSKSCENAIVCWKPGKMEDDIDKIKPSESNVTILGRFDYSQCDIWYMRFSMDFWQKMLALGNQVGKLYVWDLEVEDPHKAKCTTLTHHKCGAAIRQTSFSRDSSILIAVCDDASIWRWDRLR

CCN(c1cc(-c2ccc(CN3CCOCC3)cc2)cc(C(=O)NCc2c(C)cc(C)[nH]c2=O)c1C)C1CCN(C(=O)CCCCCCCCCCC(=O)NCCOc2cccc3c2C(=O)N(C2CCC(=O)NC2=O)C3=O)CC1 (stereo not drawn) [Compound 2099]
EZH2 protein levels (western blot) (EZH2 [1]; FIG. 28, 24 hours): reduce EZH2 protein levels

CCN(c1cc(-c2ccc(CN3CCOCC3)cc2)cc(C(=O)NCc2c(C)cc(C)[nH]c2=O)c1C)C1CCN(C(=O)CCCCCCCCCCCCCCC(=O)NCCOc2cccc3c2C(=O)N(C2CCC(=O)NC2=O)C3=O)CC1 (stereo not drawn) [Compound 2100]
EZH2 protein levels (western blot) (EZH2 [1]; FIG. 28, 24 hours): reduce EZH2 protein levels

CCN(c1cc(-c2ccc(CN3CCN(C(=O)COCC(=O)NCCCC(=O)NCCOc4cccc5c4C(=O)N(C4CCC(=O)NC4=O)C5=O)CC3)cc2)cc(C(=O)NCc2c(C)cc(C)[nH]c2=O)c1C)C1CCOCC1 (stereo not drawn) [Compound 2186]
EZH2 protein levels (western blot) (EZH2 [1]; FIG. 28, 24 hours): inactive at degrading EZH2

CCN(c1cc(-c2ccc(N3CCN(C(=O)CCC(=O)NCCCC(=O)NCCCC(=O)NCCCOc4cccc5c4C(=O)N(C4CCC(=O)NC4=O)C5=O)CC3)cc2)cc(C(=O)NCc2c(C)cc(C)[nH]c2=O)c1C)C1CCOCC1 (stereo not drawn) [Compound 2190]
EZH2 protein levels (western blot) (EZH2 [1]; FIG. 28, 24 hours): reduce EZH2 protein levels

CCN(c1cc(-c2ccc(CN3CCN(C(=O)CCCCCCCCCCC(=O)N[C@H](C(=O)N4C[C@H](O)C[C@@H]4C(=O)NCc4ccc(-c5scnc5C)cc4)C(C)(C)C)CC3)cc2)cc(C(=O)NCc2c(C)cc(C)[nH]c2=O)c1C)C1CCOCC1 [Compound 2304, (2R,4R)-1-[(2S)-2-(12-{4-[(3′-{[(4,6-dimethyl-2-oxo-1,2-dihydropyridin-3-yl)methyl]carbamoyl}-5′-[ethyl(oxan-4-yl)amino]-4′-methyl-[1,1′-biphenyl]-4-yl)methyl]piperazin-1-yl}-12-oxododecanamido)-3,3-dimethylbutanoyl]-4-hydroxy-N-{[4-(4-methyl-1,3-thiazol-5-yl)phenyl]methyl}pyrrolidine-2-carboxamide]
H3K27me3 levels (H3K27me3): reduced H3K27me3 levels
EZH2 degradation, comparison within a list of VHL-PROTAC (EZH2 [1]; FIG. 4, 24 hours): most effective
Degrading EZH2 protein (EZH2 [1]): effective in degrading EZH2 protein
Degrading EZH2 protein, 2304 versus 2305 (EZH2 [1]; FIG. 6, 24 or 48 hours): more effective than 2305
Restoration of EZH2 by proteasome inhibitor MG132 (EZH2 [1]; [12]): restored EZH2
Restoration of EZH2 by proteasome inhibitor MG132 (EZH2 [1]; FIG. 11, 24 hours, 10 μM MG132): restored EZH2
Degradation of EZH2 (EZH2 [1]): strong degradation of EZH2
EZH2 protein levels (western blot) (EZH2 [1]; FIG. 28, 24 hours): significant reduction in EZH2
half-life [2]: 3.5 to 6 h
Reduction of PRC2 component SUZ12 (SUZ12): reduction of PRC2 component SUZ12

CCN(c1cc(-c2ccc(CN3CCN(C(=O)CCCCCCCCCCCCCCC(=O)N[C@H](C(=O)C4C[C@H](O)C[C@H]4C(=O)NCc4ccc(-c5scnc5C)cc4)C(C)(C)C)CC3)cc2)cc(C(=O)NCc2c(C)cc(C)[nH]c2=O)c1C)C1CCOCC1 (stereo partly drawn) [Compound 2305]
EZH2 protein levels (western blot) (EZH2 [1]; [13]): decreases EZH2 protein levels
Rescue of EZH2 protein degradation by proteasome inhibitor MG132 (EZH2 [1]; FIG. 2, 5 μM compound with or without MG132): can be rescued by proteasome inhibitor MG132
Degrading EZH2 protein (EZH2 [1]): effective in degrading EZH2 protein
Restoration of EZH2 by proteasome inhibitor MG132 (EZH2 [1]; [12]): restored EZH2
EZH2 protein levels (western blot) (EZH2 [1]; FIG. 28, 24 hours): significant reduction in EZH2
half-life [2]: 3.5 to 6 h

CCN(c1cc(-c2ccc(CN3CCN(C(=O)CCCCCCCCCCCCCCC(=O)N[C@H](C(=O)N4C[C@@H](O)C[C@H]4C(=O)NCc4ccc(-c5scnc5C)cc4)C(C)(C)C)CC3)cc2)cc(C(=O)NCc2c(C)cc(C)[nH]c2=O)c1C)C1CCOCC1 [Compound 3571]
EZH2 protein levels (western blot) (EZH2 [1]; [13]): inactive
Degrading EZH2 protein, versus 2305 (EZH2 [1]; FIG. 12, 24 hours): less effective than 2305

CCN(c1cc(-c2ccc(CN3CCN(C(=O)CCCCCCCCC(=O)N[C@H](C(=O)N4C[C@H](O)C[C@H]4C(=O)NCc4ccc(-c5scnc5C)cc4)C(C)(C)C)CC3)cc2)cc(C(=O)NCc2c(C)cc(C)[nH]c2=O)c1C)C1CCOCC1 [Compound 6271]
Restoration of EZH2 by proteasome inhibitor MG132 (EZH2 [1]; FIG. 11, 24 hours, 10 μM MG132): restored EZH2

CCN(c1cc(-c2ccc(CN3CCN(C(=O)CCCCCCCCCCCC(=O)N[C@H](C(=O)N4C[C@H](O)C[C@H]4C(=O)NCc4ccc(-c5scnc5C)cc4)C(C)(C)C)CC3)cc2)cc(C(=O)NCc2c(C)cc(C)[nH]c2=O)c1C)C1CCOCC1 [Compound 6273]
Restoration of EZH2 by proteasome inhibitor MG132 (EZH2 [1]; FIG. 11, 24 hours, 10 μM MG132): restored EZH2

CCN(c1cc(-c2ccc(CN3CCN(C(=O)CCCCCCCCCCC(=O)N[C@H](C(=O)N4C[C@@H](O)C[C@H]4C(=O)NCc4ccc(-c5scnc5C)cc4)C(C)(C)C)CC3)cc2)cc(C(=O)NCc2c(C)cc(C)[nH]c2=O)c1C)C1CCOCC1 [Compound 6285]
Degradation of EZH2 (EZH2 [1]): no ability to degrade EZH2

CCN(c1cc(-c2ccc(CN3CCN(C(=O)CCCCCCCCCC(=O)N[C@H](C(=O)N4C[C@@H](O)C[C@H]4C(=O)NCc4ccc(-c5scnc5C)cc4)C(C)(C)C)CC3)cc2)cc(C(=O)NCc2c(C)cc(C)[nH]c2=O)c1C)C1CCOCC1 [Compound 6286]
Colonies (C4-2B cells [3]): attenuated anti-proliferative effects
Degradation of EZH2 (EZH2 [1]): no ability to degrade EZH2
EZH2 protein (western blot) (EZH2 [4]): no changes
Cell density by imaging (LNCaP cells [5]): attenuated anti-proliferative effects
Ability to degrade EZH2 with siRNA control (VHL present) (EZH2 [6]): inactive control
Cell proliferation by phase object confluence (LNCaP cells [7]): limited ability to inhibit cell proliferation
Colonies (LNCaP cells [8]): attenuated anti-proliferative effects
Cell proliferation by phase object confluence (C4-2B cells [9]): limited ability to inhibit cell proliferation
EZH2 protein (western blot) (EZH2 [10]): no changes
Cell density by imaging (C4-2B cells [11]): attenuated anti-proliferative effects

CCN(c1cc(-c2ccc(CN3CCN(CCCCCCCCCCCC(=O)N[C@H](C(=O)N4C[C@@H](O)C[C@H]4C(=O)NCc4ccc(-c5scnc5C)cc4)C(C)(C)C)CC3)cc2)cc(C(=O)NCc2c(C)cc(C)[nH]c2=O)c1C)C1CCOCC1 [Compound 6300]
Colonies (C4-2B cells [3]): attenuated anti-proliferative effects
Degradation of EZH2 (EZH2 [1]): no ability to degrade EZH2
EZH2 protein (western blot) (EZH2 [4]): no changes
Cell density by imaging (LNCaP cells [5]): attenuated anti-proliferative effects
Cell proliferation by phase object confluence (LNCaP cells [7]): limited ability to inhibit cell proliferation
Colonies (LNCaP cells [8]): attenuated anti-proliferative effects
Cell proliferation by phase object confluence (C4-2B cells [9]): limited ability to inhibit cell proliferation
EZH2 protein (western blot) (EZH2 [10]): no changes
Cell density by imaging (C4-2B cells [11]): attenuated anti-proliferative effects

Cc1cc(C)c(CNC(=O)c2cc(-c3ccc(N4CCN(CCNC(=O)CC56CC7CC(CC(C7)C5)C6)CC4)nc3)cc3c2cnn3C(C)C)c(=O)[nH]1 [MS1943, reference compound]
Ability to degrade EZH2 at 0.5 μM (EZH2 [1]; FIG. 28, 24 hours, 0.5 μM): no ability to degrade EZH2
